One test deals with T1, Human Mer (Homo sapiens, UniProt Q12866).
T1 construct: Human Mer (residues R557-E882 with H628Q and R794A, 0.7 nM); purchased Eurofins Pharma Discovery Services UK Limited (KinaseProfiler service)
T1 sequence (Q12866 557-882 limits assumed): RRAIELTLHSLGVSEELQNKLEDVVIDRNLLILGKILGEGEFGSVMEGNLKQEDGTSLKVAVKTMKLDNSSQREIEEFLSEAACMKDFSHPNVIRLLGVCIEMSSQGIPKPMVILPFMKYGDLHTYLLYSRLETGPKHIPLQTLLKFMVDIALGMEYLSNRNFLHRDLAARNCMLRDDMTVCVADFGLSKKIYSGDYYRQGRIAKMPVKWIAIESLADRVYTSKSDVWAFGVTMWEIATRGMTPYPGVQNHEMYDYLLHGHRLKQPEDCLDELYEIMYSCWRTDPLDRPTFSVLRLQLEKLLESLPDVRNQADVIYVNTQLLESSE
Nature of the test: Human Mer kinase assay (33P-phosphoryl transfer radiometric, KinaseProfiler). The note with it: biochemical activity; 10 μM ATP. The procedure, abridged: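 Radiometric filter-binding assay with human Mer R557-E882 (H628Q/R794A; 0.7 nM) in MOPS pH 7.0. Nine half-log compound concentrations (top 1 μM, 2% DMSO) gave IC50 by variable-slope sigmoidal fit.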

In the next test the target is Met (Homo sapiens, UniProt P08581). In words: Met autophosphorylation ELISA in PC-3 cells. The format is cell-based. Details: endogenous in cells; host or cells: PC-3 prostate cancer cells (ATCC #CRL-1435). Particulars: cellular activity, HGF-stimulated, phospho-Met ELISA, read-out: c-Met IC50. The procedure, abridged: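 PC-3 cells serum-starved 3 h, treated 1 h with 8-point compound series (0.3% DMSO), then stimulated with 100 ng/mL human HGF for 10 min. Lysate phospho-Met (panTyr) measured by sandwich ELISA; IC50 from 4-parameter logistic fit against DMSO and reference-inhibitor controls.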
Chain of Met (P08581 25-1390): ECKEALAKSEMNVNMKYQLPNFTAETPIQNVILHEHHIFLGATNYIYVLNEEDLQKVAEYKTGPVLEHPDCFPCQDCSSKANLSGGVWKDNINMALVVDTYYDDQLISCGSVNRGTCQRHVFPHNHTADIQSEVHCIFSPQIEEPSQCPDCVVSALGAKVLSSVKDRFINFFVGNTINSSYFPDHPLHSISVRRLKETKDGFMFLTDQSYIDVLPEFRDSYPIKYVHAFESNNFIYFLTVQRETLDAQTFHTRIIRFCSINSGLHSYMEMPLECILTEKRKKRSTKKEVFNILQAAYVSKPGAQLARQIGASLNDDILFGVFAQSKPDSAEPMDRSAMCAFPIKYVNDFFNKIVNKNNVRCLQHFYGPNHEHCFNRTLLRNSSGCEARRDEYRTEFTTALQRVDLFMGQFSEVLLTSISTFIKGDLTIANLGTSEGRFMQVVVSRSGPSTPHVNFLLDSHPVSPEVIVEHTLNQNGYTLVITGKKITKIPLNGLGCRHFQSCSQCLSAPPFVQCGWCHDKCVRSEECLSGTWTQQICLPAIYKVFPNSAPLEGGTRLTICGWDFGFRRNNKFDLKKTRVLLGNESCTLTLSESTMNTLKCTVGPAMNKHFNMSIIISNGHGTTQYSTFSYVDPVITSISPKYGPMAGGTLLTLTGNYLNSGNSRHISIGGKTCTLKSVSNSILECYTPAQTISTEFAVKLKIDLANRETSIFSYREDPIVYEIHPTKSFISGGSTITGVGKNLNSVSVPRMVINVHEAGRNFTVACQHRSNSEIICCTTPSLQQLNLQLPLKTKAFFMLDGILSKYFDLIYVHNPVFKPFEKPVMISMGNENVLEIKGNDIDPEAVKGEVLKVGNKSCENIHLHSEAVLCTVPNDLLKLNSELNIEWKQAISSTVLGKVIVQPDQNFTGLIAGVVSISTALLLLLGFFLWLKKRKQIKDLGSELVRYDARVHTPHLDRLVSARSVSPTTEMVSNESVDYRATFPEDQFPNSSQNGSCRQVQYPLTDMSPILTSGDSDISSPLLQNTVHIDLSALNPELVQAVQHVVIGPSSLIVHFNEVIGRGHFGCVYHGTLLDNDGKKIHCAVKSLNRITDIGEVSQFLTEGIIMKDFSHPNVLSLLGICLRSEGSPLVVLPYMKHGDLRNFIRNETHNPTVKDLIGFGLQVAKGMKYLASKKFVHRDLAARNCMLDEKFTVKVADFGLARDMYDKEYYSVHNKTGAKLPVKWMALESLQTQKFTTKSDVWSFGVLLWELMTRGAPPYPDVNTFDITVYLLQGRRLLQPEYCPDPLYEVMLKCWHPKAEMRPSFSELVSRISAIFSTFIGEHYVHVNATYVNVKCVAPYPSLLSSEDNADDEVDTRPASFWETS

For the compound `O=C(Nc1ccc(F)cc1)C1(C(=O)Nc2ccc(Oc3ccnc4cc(-c5cnn(C(F)F)c5)ccc34)cc2)CC1` [Compound 13, 1-N-[4-[7-[1-(Difluoromethyl)pyrazol-4-yl]quinolin-4-yl]oxyphenyl]-1-N′-(4-fluorophenyl)cyclopropane-1,1-dicarboxamide], the figures for the IC50 at Human Mer and on Met were at most 10 nM and 10 to 100 nM, respectively.
For `Cc1cc(F)cc(C)c1NC(=O)C1(C(=O)Nc2ccc(Oc3ccnc4cc(-c5cnn(C)c5)ccc34)cc2)CC1` [Compound 82, 1-N′-(4-Fluoro-2,6-dimethylphenyl)-1-N-[4-[7-(1-methylpyrazol-4-yl)quinolin-4-yl]oxyphenyl]cyclopropane-1,1-dicarboxamide], the results for the IC50 against Human Mer and at Met were at most 10 nM and 100 to 300 nM, respectively.
